Patent US20180271869A1, “TREATMENT OF ANXIETY DISORDERS AND AUTISM SPECTRUM DISORDERS” (Rugen Holdings (Cayman) Limited, priority 2014, published 2018)
Entries after “also recorded” stand apart in the source; their conditions may differ.

Tests used:
Sapap3 knock-out mice = assay: Novelty Phobia Test in Sapap3 knock-out mice; assay type: in vivo, mouse; conditions: for novelty phobia (number of touch bouts), dose dependence: single i.p. administration
Experimental: (§1) Animals. Shank3 knockout mice and Sapap3 knockout mice were purchased from Duke University. The animals were raised in a SPF environment according to AALAC guidelines. The breeding conditions and genotyping method were the same as described in J. M. Welch et al., Nature 2007; 448(7156):894-900, and in J. Peca et al., Nature 2011;472(7344):437-442. Homozygous knockout mice of 4 to 8 weeks of age were used in behavioral assays.
The test compounds were dissolved in a small volume of DMSO and diluted saline and administered intraperitoneally (i.p.) to 4 to 8 week old mice. […]
The behavioral testing apparatus was a rectangular black Plexiglas box, with no top or bottom (50 cm long, 26 cm wide and 15 cm tall). The chambers of the testing apparatus were cleaned and fresh paper chip bedding was added between tests. Behavioral tests were conducted between 10:00 am and 1:00 pm in dim light. Mice were brought to the experiment room in their home cages and administered intraperitoneally with drugs or vehicle in a volume of 10 ml/kg. […] After this habituation period, a novel object (e.g., a toy ball of 3 cm in diameter with spikes) was introduced to the center of the chamber for 5 min. For the entire 15 min that the mouse spent in the chamber, video was recorded and analyzed with AnyMaze software (purchased from Stoelting Co.). The total distance traveled during the entire 15 min and the bouts that the mice touched the novel object during the last 5 min were measured. Statistical significance between two groups was determined by t test. In all statistical measures, the criterion for significance was set at p<0.05.

human NR1/NR2B = target: T1, human NR1/NR2B (Homo sapiens, UniProt Q05586+Q13224); assay: NR2B antagonist activity, Fluo-4 calcium influx assay in HEK293 cells; assay type: cell-based; conditions: glutamate 100 μM and glycine 50 μM, Fluo-4 fluorescence, read-out: hNR2B IC50
T1 construct: expressed in transfected cells
T1 sequence (Q13224 27-1484, other chains not shown): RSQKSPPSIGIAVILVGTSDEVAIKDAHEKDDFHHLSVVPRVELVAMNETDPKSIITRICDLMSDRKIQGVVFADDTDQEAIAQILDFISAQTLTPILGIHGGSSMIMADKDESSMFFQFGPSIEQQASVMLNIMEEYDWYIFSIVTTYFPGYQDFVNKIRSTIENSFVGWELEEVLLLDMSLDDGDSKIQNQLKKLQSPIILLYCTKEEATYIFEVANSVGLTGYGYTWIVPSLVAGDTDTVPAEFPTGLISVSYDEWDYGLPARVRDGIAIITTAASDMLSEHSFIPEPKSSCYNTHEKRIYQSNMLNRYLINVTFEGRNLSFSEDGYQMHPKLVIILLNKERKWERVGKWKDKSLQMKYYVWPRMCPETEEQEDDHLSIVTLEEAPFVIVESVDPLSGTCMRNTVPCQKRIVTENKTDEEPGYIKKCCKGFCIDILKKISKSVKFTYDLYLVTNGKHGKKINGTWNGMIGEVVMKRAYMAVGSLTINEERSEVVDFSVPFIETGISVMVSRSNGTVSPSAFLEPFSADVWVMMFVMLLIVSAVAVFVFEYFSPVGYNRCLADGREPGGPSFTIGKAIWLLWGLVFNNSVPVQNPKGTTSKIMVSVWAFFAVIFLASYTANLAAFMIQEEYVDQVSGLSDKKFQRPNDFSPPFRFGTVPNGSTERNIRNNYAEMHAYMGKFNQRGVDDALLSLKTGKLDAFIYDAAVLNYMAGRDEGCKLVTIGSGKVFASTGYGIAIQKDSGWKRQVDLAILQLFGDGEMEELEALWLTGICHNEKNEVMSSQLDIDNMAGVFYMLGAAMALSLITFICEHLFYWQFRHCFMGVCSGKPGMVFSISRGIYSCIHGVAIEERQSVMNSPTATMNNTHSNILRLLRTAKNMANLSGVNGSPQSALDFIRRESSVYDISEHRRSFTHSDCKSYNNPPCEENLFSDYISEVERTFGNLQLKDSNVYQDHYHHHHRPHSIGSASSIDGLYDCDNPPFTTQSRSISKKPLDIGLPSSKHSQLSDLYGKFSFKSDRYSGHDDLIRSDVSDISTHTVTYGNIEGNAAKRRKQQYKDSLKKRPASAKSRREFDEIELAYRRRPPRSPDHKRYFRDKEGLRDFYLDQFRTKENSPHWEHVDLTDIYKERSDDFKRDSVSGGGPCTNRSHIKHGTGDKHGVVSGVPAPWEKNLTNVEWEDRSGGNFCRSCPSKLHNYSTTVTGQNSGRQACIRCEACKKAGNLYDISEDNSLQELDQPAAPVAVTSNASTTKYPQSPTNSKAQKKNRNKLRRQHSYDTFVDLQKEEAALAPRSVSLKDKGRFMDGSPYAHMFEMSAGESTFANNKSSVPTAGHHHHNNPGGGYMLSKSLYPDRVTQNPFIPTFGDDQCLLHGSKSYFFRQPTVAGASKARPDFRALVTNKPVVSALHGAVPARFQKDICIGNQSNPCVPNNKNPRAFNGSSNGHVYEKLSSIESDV
Experimental: (§2) HEK293 cell lines stably expressing cloned human NR1/NR2B and NR1/NR2A, respectively, were established according to standard previously described methods (Hansen et al., Comb. Chem High Throughput Screen. 11:304, 2008). Activation of the NR2A or NR2B subtype of NMDA receptor with glutamate as an agonist and glycine co-agonist on these cells results in calcium influx, which can be monitored with fluorescent indicator Fluo-4.
(§3) For experiments, the cells were seeded onto poly-D-lysine-coated 96-well black plates with clear bottom (Corning) at a density of ˜50,000 cells/well. After overnight culture, the growth medium was removed from the wells and the cells were incubated at 37° C. for 60 min in Hanks buffer containing 4 μM fluo-4-AM (Invitrogen) and 0.1% bovine serum albumin (BSA). After dye-loading, the cells were washed three times with Hanks buffer and incubated for 10 min at room temperature with various concentrations of test compounds prepared in Hanks buffer with 0.1% BSA. The cell plates were placed onto FDSS μCell fluorescence reader (Hamamatsu). After 20 sec reading of background fluorescence, agonist glutamate at final 100 μM and co-agonist glycine at final 50 μM were added to the cells to activate the receptor, and the resulting fluorescence changes were recorded and quantified.

human NR1/NR2A [1] = target: T2, human NR1/NR2A (Homo sapiens, UniProt Q05586+Q12879); assay: NR2A antagonist activity, Fluo-4 calcium influx assay in HEK293 cells; assay type: cell-based; conditions: glutamate 100 μM and glycine 50 μM, Fluo-4 fluorescence, read-out: hNR2A IC50
T2 construct: expressed in transfected cells
T2 sequence (Q12879 23-1464, other chains not shown): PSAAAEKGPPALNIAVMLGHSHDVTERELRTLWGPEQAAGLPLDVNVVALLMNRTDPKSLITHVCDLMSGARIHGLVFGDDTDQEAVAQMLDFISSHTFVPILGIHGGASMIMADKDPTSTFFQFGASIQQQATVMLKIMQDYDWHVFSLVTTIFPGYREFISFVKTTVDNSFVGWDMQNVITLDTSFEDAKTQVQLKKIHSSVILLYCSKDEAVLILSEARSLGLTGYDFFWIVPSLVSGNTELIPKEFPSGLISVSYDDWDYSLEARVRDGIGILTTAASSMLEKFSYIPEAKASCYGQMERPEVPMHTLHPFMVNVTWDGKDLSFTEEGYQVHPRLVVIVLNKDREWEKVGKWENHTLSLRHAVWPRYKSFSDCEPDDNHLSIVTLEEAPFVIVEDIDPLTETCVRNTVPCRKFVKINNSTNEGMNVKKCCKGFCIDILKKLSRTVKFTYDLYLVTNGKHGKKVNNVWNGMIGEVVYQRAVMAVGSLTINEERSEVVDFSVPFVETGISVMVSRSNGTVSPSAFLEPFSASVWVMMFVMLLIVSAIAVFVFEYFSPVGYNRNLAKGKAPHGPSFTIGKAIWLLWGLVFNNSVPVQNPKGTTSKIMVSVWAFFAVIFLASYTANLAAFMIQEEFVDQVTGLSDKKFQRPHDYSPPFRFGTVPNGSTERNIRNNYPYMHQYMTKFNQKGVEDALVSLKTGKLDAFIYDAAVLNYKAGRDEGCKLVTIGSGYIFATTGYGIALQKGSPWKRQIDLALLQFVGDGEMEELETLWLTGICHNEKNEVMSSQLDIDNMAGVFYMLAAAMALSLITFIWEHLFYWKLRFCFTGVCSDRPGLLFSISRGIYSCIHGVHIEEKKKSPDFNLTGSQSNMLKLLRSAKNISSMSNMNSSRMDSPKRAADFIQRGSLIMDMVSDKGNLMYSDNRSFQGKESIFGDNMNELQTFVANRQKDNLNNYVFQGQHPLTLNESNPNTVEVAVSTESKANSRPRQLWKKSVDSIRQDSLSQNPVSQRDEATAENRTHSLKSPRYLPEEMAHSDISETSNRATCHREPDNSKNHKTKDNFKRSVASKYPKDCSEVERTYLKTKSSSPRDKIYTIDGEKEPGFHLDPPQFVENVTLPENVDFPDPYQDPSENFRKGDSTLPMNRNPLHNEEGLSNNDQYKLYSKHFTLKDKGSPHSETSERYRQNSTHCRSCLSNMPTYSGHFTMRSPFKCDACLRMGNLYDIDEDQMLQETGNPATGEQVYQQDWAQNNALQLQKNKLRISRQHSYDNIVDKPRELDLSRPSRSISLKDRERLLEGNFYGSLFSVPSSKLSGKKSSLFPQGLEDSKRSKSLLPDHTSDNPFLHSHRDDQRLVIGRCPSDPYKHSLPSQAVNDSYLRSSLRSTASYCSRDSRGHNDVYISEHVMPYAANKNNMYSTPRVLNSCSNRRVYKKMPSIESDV
Source text: as §2, with “Fluo-4. A cell based assay has been implemented to evaluate the effect of a compound on NR2A and NR2B receptors by measuring the fluorescent changes (Hansen et al., Comb. Chem High Throughput Screen. 11:304, 2008).” for “Fluo-4.”
as §3, with “HEK293 cells stably expressing NR2A or NR2B receptors were cultured at 37° C. in a humidified CO2 incubator in DMEM supplemented with 10% fetal bovine serum (FBS) (Hyclone), 10 μM MK801 (Sigma-Aldrich) and 50 μM AP-5 (Tocris). For” for “For”, “quantified. Based on the changes in fluorescence intensity, the pharmacological effect of test compounds were analyzed and the IC50 values derived from a non-linear least squares fitting of the concentration-dependent response to a standard logistic equation using Prism (Graphpad, Inc):” for “quantified.”
Amplitude=Max Amplitude/(1+(IC50/[antagonist])°).

Shank3 knock-out mice = assay: Novelty Phobia Test in Shank3 knock-out mice; assay type: in vivo, mouse; conditions: for novelty phobia (number of touch bouts): vs vehicle, p<0.05
Experimental: as §1
The test compounds were dissolved in a small volume of DMSO and diluted saline and administered intraperitoneally (i.p.) to 4 to 8 week old mice. About 30-60 minutes after dosing, the mice were subjected to a behavioral test as described below.
The behavioral testing apparatus was a rectangular black Plexiglas box, with no top or bottom (50 cm long, 26 cm wide and 15 cm tall). The chambers of the testing apparatus were cleaned and fresh paper chip bedding was added between tests. Behavioral tests were conducted between 10:00 am and 1:00 pm in dim light. Mice were brought to the experiment room in their home cages and administered intraperitoneally with drugs or vehicle in a volume of 10 ml/kg. About 30 to 60 min after drug administration, the mice were placed into the chamber and allowed to free play for 10 min. After this habituation period, a novel object (e.g., a toy ball of 3 cm in diameter with spikes) was introduced to the center of the chamber for 5 min. For the entire 15 min that the mouse spent in the chamber, video was recorded and analyzed with AnyMaze software (purchased from Stoelting Co.). The total distance traveled during the entire 15 min and the bouts that the mice touched the novel object during the last 5 min were measured. Statistical significance between two groups was determined by t test. In all statistical measures, the criterion for significance was set at p<0.05.

human NR1/NR2A [2] = target: T3, human NR1/NR2A (Homo sapiens, UniProt Q12879); conditions: from L. Mony et al., Br. J. Pharmacol. 2009; read-out: hNR2A IC50; cited from earlier work
T3 construct: expressed in transfected cells
T3 sequence (Q12879 23-1464, other chains not shown): as above

wild-type mice = assay: Elevated Plus Maze; assay type: in vivo, mouse; conditions: for time spent in the open arms: vs vehicle
Source text: The Elevated Plus Maze, which detects anxiolytic activity, follows that described by S. L. Handley and S. Mithani Naunyn. Schmied. Arch. Pharmacol. 1984, 327, 1-5. Rodents avoid open spaces (the open arms of an elevated plus-maze). Anxiolytics increase exploratory activity in the open arms, as indicated by increased time spent on the open arms and/or by increased % open-arm entries. The maze consists of 4 arms of equal length and width (14×5 cm) arranged in the form of a plus sign (+). Two opposite arms are enclosed by 12 cm high walls (closed arms). The 2 other arms have no walls (open arms). The maze is raised approximately 60 cm above the floor. A mouse was placed in the center of the plus-maze and left to explore for 5 minutes. The number of entries into the open and closed arms and the time spent on the open arms were recorded. The percentage of open arm entries (open arm entries/total arm entries×100) was calculated. Ten mice were studied per group. The test was performed blind (test substances versus vehicle). Data with the test substances were analyzed by comparing treated groups (7 groups except for the reference substance) with vehicle control using one-way ANOVA followed by post-hoc Dunnett's tests. Data with the reference substance were analyzed using unpaired Student's t tests.

wild type mice = assay: Marble Burying Test; assay type: in vivo, mouse; conditions: for number of marbles buried: vs vehicle, p<0.001
Experimental: The Marble Burying Test was conducted as previously described by C. L. Broekkamp et al., Eur. J. Pharmacol. 1986, 126, 223-229. Mice exposed to novel object (marbles) will bury them in the sawdust floor covering. Anxiolytics decrease the number of marbles buried at non-sedative doses. Mice were individually placed in transparent plastic cages (33×21×18 cm) with 5 cm of sawdust on the floor 25 marbles grouped in the center of the cage. The cage was covered with an inverted plastic cage. Each test cage, together with the marbles, was impregnated with mouse odor before-hand by leaving 10 mice in the cage for 15 minutes. These mice then played no further role in the experiment. The number of marbles covered by sawdust (⅔ or more) was counted at the end of a 30-minute test. Twelve mice were studied per group. The test was performed blind (test substances versus vehicle). Clobazam (8 mg/kg i.p.), administered 40 minutes before the test, was used as reference substance. Data with the test substances were analyzed by comparing treated groups with vehicle control using Kruskall-Wallis test followed by Mann-Whitney U tests. Data with the reference substance were analyzed using Mann-Whitney U tests.

[3] = single dose subcutaneous, highest dose tested; Iijima et al. 2010; cited from earlier work
[4] = Mathur et al. 2008; cited from earlier work
[5] = each test dose, single i.p., vs vehicle
[6] = 5 mg/kg i.p. once/day for 6 days, tested 30-60 min after last dose
[7] = 8 mg/kg i.p. 30 minutes before testing

Structure (SMILES): Cc1ccc(COC(=O)N2CC[C@H](CNc3ncccn3)[C@H](F)C2)cc1 (racemic) [Compound C, (±)-cis-4-methylbenzyl 3-fluoro-4-[(pyrimidin-2-ylamino)methyl]piperidine-1-carboxylate]
- novelty phobia (number of touch bouts) (Sapap3 knock-out mice; [5]): significantly improved
- novelty phobia (number of touch bouts), dose dependence (Sapap3 knock-out mice): dose-dependently improved novelty phobia

Structure (SMILES): Cc1ccc(COC(=O)N2CC[C@@H](CNc3ncccn3)[C@@H](F)C2)cc1 [(3R,4S)-4-methylbenzyl 3-fluoro-4-[(pyrimidin-2-ylamino)methyl]piperidine-1-carboxylate]
- IC50 (human NR1/NR2B): 0.018 µM
- IC50 (human NR1/NR2A [1]): > 10 µM

Structure (SMILES): C[C@@H]([C@@H](O)c1ccc(O)cc1)N1CCC(O)(c2ccccc2)CC1 [Compound A, (+)-(1S,2S)-1-(4-hydroxyphenyl)-2-(4-hydroxy-4-phenylpiperidino)-1-propanol, reference compound]
- novelty phobia (number of touch bouts) (Shank3 knock-out mice; [6]): significantly improved novelty phobia
- IC50 (human NR1/NR2A [2]): ≥ 10 µM

Structure (SMILES): FC(F)(F)c1ccc(C(F)(F)CN2CCC(Nc3ncnc4[nH]ncc34)CC2)cc1 [Compound B, N-(1-(2,2-difluoro-2-(4-trifluoromethyl)phenyl-ethyl)piperidin-4-yl)-1H-pyrazolo[3,4-d]pyrimidin-4-amine]
- IC50 (human NR1/NR2A [1]): > 10 µM
- novelty phobia (number of touch bouts) (Shank3 knock-out mice; [6]): significantly improved novelty phobia
- novelty phobia (number of touch bouts) (Shank3 knock-out mice; 1 and 5 mg/kg single i.p.): significantly improved novelty phobia
- novelty phobia (number of touch bouts), dose dependence (Shank3 knock-out mice; single i.p. administration 30-60 min before testing): dose-dependently improved novelty phobia
- novelty phobia (number of touch bouts) (Sapap3 knock-out mice; [5]): significantly improved
- novelty phobia (number of touch bouts), dose dependence (Sapap3 knock-out mice): dose-dependently improved novelty phobia

Structure (SMILES): Cc1ccc(COC(=O)N2CC[C@H](CNc3ncccn3)[C@H](F)C2)cc1 [Compound D, (−)-(3S,4R)-cis-4-methylbenzyl 3-fluoro-4-[(pyrimidin-2-ylamino)methyl]-piperidine-1-carboxylate]
- IC50 (human NR1/NR2B): 0.011 µM
- IC50 (human NR1/NR2A [1]): > 10 µM
- novelty phobia (number of touch bouts) (Sapap3 knock-out mice; 1 mg/kg i.p. 20 minutes prior to testing): improved novelty phobia
- time spent in the open arms (wild-type mice; 3 and 10 mg/kg i.p. 20 minutes before the test, p<0.01/0.001): significantly different from that of vehicle
- time spent in the open arms, dose dependence (wild-type mice; single i.p. dose 20 minutes before the test): maximal efficacy approaching that of the benzodiazepine control compound clobazam; also recorded: dose-dependently increased the amount of time spent
- number of marbles buried (wild type mice; 1 mg/kg i.p. 20 minutes before the test): significantly different from that of vehicle
- number of marbles buried, dose dependence (wild type mice; single i.p. dose 20 minutes before 30-minute test session): dose-dependently reduced the number of marbles buried

Structure (SMILES): C[C@@H](CN1CCC(Cc2ccccc2)CC1)[C@@H](O)c1ccc(O)cc1 [Ro25-6981]
- effect in the marble burying test [3]: modest efficacy
- activity in the elevated plus maze test [4]: inactive

Structure (SMILES): CN1C(=O)CC(=O)N(c2ccccc2)c2cc(Cl)ccc21 [clobazam, reference compound]
- time spent in the open arms (wild-type mice; [7]): significantly different from that of vehicle
- number of marbles buried (wild type mice; [7]): significantly different from that of vehicle
